Test results reported in patent publication US20080199846A1, “Poultry semen extender” (priority 2007, published 2008).

Tested on: 24 h-stored turkey semen
Experiment: Fertility evaluation: artificial insemination of hens with 24 h-stored turkey semen
Format: in vivo
Conditions: for fertility of 24 h-stored semen versus control stored semen: 0.5, 2.5 or 10.0 mg/ml PC, wks 1-7 of egg production
Text: Materials and Methods. Animals: LargeWhite breeder poults were purchased from a primary breeder and maintained under standard management conditions during the brooding and growing periods. At 28 wk of age, toms were photostimulated by increasing light exposure from a 12:12 to a 14:10 light:dark cycle to initiate semen production. Using the abdominal massage semen collection method (Burrows, W. H., and J. P. Quinn, Poult. Sci., 14: 251-254 (1935)), toms were pre-milked at 30 wk of age and then screened for semen quality at 31 and 32 wk of age prior to being designated to sperm storage treatment groups. At 32 wk of age, hens were photostimulated by increasing the daily light exposure from 6:18 to 14:10 h (light:dark) to initiate ovarian development and egg production. Hens were inseminated on Days 10 and 12 after photostimulation and then once per week for the next 12 wk of egg production. A total of 10 toms and 76 hens were used for each experimental replicate.
Semen Collection, Evaluation and Storage: Semen was collected weekly from toms and evaluated for volume, sperm concentration, sperm viability, and sperm mobility. Fresh semen was aliquoted for the control and 3 sperm treatments. Control semen was extended 1:1 with Beltsville Poultry Semen Extender (BPSE), while treated semen was extended 1:1 with BPSE supplemented with 0.5, 2.5 or 10.0 mg/ml phosphatidylcholine (PC). Extended semen was transferred to 48-well culture plates. Multiwell plates were placed in a room temperature water bath on an orbital shaker (125 rpm) and slowly cooled to 4° C. with lids loosely fitted to ensure air availability during agitation. Semen was maintained under these conditions for 24 h.
Fertility Evaluation: A total of 304 hens (76/replicate) were artificially inseminated weekly with semen stored with 0.5 mg PC/ml (n=19), 2.5 mg PC/ml (n=19), 10 mg PC/ml (n=19) or without PC (control, n=19). An additional set of hens were inseminated weekly with stored semen containing 2.5 mg/ml PC and either 0.5 mM, 5.0 mM, or 50 mM ZnCl2; prior to insemination, semen stored in the presence of ZnCl2 was treated with EDTA to chelate Zn ions and restore sperm motility. The inseminant dose for all treatments was 150×10^6 sperm. This sperm number is less than that typically inseminated for commercial production; however, I desired a system sufficiently sensitive to detect even small changes in fertility due to sperm treatment. Eggs were candled after 7 d of incubation to determine true fertility and allowed to hatch to determine hatchability. Fertility trials were replicated 4 times using different flocks.
Statistical Analysis: Prior to analysis, data were checked to determine if a transformation was necessary. As expected, variables scored as percents (e.g., fertility) required transformation. I used the standard variance stabilizing arcsine transformation, y=arcsine (√(x)), where x represents the data, recorded as a proportion, and y is the scale used in the analysis. This transformation stabilized the variances sufficiently to proceed with an analysis in a mixed models framework. Software for conducting mixed models analyses in non-Gaussian frameworks, e.g., logistic regression, is not yet readily available. The mixed models I developed, estimated using Proc Mixed (SAS Institute, 1999), considered sperm treatment and week of study as fixed factors, with hen as a random factor. In addition, since data were taken from the same individuals repeatedly, thus inducing correlation, I allowed for within-individual time series correlation using an autoregressive structure. To ensure that my sample size and design had sufficient power to accurately determine the effects of the sperm treatments, I did a small simulation study prior to finalizing the design. Power was reassessed once the study was complete, and I report those results below. I used the default REML estimation method in Proc Mixed. […]

Compound | fertility rates versus 5.0 or 50 mM ZnCl2 (0.5 mM ZnCl2, semen with 2.5 mg/ml PC, EDTA before insemination, p<0.05) | true fertility of 24 h-stored semen versus other ZnCl2 treatments or control semen (5.0 mM ZnCl2, wks 1-7, p<0.05) | hens producing 100% fertile eggs versus any other stored semen treatment (2.5 mg/ml PC, first 7 wks of egg production, p<0.05) | percentage of hens laying all (100%) fertile eggs versus any other sperm treatment group (2.5 mg/ml PC, wks 2-7, p<0.05) | predictability of fertility versus the other concentrations (10 mg/ml) | fertility rates during egg production (10 mg/ml PC treatment) | fertility rates versus 0.5 or 2.5 mg/ml PC treatments (10 mg/ml PC, at 1, 2 8, 10, 11, and 12 wks, p<0.05) | percentage of hens laying all unfertilized eggs versus any other sperm treatment group (10.0 mg/ml PC, wks 4 and 10, p<0.05) | fertility of 24 h-stored semen versus control stored semen (p<0.05) | fertility of 24 h-stored semen versus control stored semen (p<0.05, listed as phosphatidycholine) | fertility of stored turkey semen (0.5 or 2.5 mg/ml, first 12 wks of egg production) | fertility rates, 0.5 versus 2.5 mg/ml PC treatments (throughout egg production except wks 7 and 12, p>0.05) | fertility of 2.5 mg/ml PC treatment versus 0.5 mg/ml (wks 7 and 12, p<0.05)
[Cl-].[Cl-].[Zn+2] [ZnCl2] | Higher | higher |  |  |  |  |  |  |  |  |  |  | 
phosphatidylcholine [PC] |  |  | more | more | less predictable fertility | varied widely | Lower | more | improved | higher | improved | similar | higher
